Measured values taken from patent US20230226005A1, “Methods of Treating, Ameliorating, Shortening Duration, and/or Reversing Symptoms and/or Complications of a Coronavirus Infection” (Yale University, priority 2020, published 2023).

System: SARS-CoV-2
Experiment: Phase IIa double-blind placebo-controlled study, camostat mesylate 200 mg four times daily for seven days: viral load (log10) by COVID-19 RT-PCR of nasopharyngeal swab and saliva
Assay type: in vivo
Details: for viral load, Fitzmaurice mixed model, Common baseline: day 0; for viral load change Effect (camostat vs placebo), Fitzmaurice mixed model, visit 2 / viral load, Fitzmaurice mixed model, visit 2 / viral load, Fitzmaurice mixed model, visit 2 change: day 2; for viral load change Effect (camostat vs placebo), Fitzmaurice mixed model, visit 3(D4) / viral load, Fitzmaurice mixed model, visit 3(D4) / viral load, Fitzmaurice mixed model, visit 3(D4) change: day 4; for viral load change Effect (camostat vs placebo), Fitzmaurice mixed model, visit 4(D6) / viral load, Fitzmaurice mixed model, visit 4(D6) / viral load, Fitzmaurice mixed model, visit 4(D6) change: day 6; for viral load Camostat LSMean Change (SE) / viral load change Difference (SE) between treatment groups: ANCOVA linear mixed model, n = 57; for viral load change Difference (SE) between treatment groups: placebo minus camostat
[1] = visit 3 (day 4), listed as Camostat

## CN(C)C(=O)COC(=O)Cc1ccc(OC(=O)c2ccc(NC(=N)N)cc2)cc1 [camostat, 4-[[4-[(Aminoiminomethyl)amino]benzoyl]oxy]benzeneacetic acid 2-(dimethylamino)-2-oxoethyl ester]
N gene, visit 4 (day 6)
  viral load (log10) Median: 2.48 log10
N gene, visit 5 (day 14)
  change in viral load from baseline, Mean: −5.21 log10
  change in viral load from baseline, Median: −5.52 log10
  viral load (log10) Mean: 1.21 log10
  viral load (log10) Median: 0.12 log10
N gene, visit 6 (day 28)
  change in viral load from baseline, Mean: −6.33 log10
  change in viral load from baseline, Median: −6.60 log10
  viral load (log10) Mean: 0.05 log10
  viral load (log10) Median: 0.00 log10
ORF1ab gene, visit 1 (day 0)
  change in viral load from baseline, Mean: 0.00 log10
  change in viral load from baseline, Median: 0.00 log10
  viral load (log10) Mean: 6.17 log10
  viral load (log10) Median: 6.50 log10
ORF1ab gene, visit 2 (day 2)
  change in viral load from baseline, Mean: −1.17 log10
  change in viral load from baseline, Median: −1.04 log10
  viral load (log10) Mean: 4.71 log10
  viral load (log10) Median: 4.20 log10
ORF1ab gene, visit 3 (day 4)
  change in viral load from baseline, Mean: −2.14 log10
  change in viral load from baseline, Median: −2.33 log10
  viral load (log10) Mean: 4.10 log10
  viral load (log10) Median: 4.41 log10
ORF1ab gene, visit 4 (day 6)
  change in viral load from baseline, Mean: −3.39 log10
  change in viral load from baseline, Median: −3.41 log10
  viral load (log10) Mean: 2.42 log10
  viral load (log10) Median: 2.47 log10
ORF1ab gene, visit 5 (day 14)
  change in viral load from baseline, Mean: −5.19 log10
  change in viral load from baseline, Median: −5.61 log10
  viral load (log10) Mean: 1.04 log10
  viral load (log10) Median: 0.00 log10
ORF1ab gene, visit 6 (day 28)
  change in viral load from baseline, Mean: −6.15 log10
  change in viral load from baseline, Median: −6.57 log10
  viral load (log10) Mean: 0.05 log10
  viral load (log10) Median: 0.00 log10
ORF1ab
  viral load, Fitzmaurice mixed model, Common baseline: 6.3 (5.8, 6.8) log10
  viral load change Effect (camostat vs placebo), Fitzmaurice mixed model, visit 2: 0.28 (−0.57, 1.13) log10
  viral load, Fitzmaurice mixed model, visit 2: 5 (4.3, 5.8) log10
  viral load, Fitzmaurice mixed model, visit 2 change: −1.2 (−1.9, −0.6) log10
  viral load change Effect (camostat vs placebo), Fitzmaurice mixed model, visit 3(D4): −0.46 (−1.3, 0.39) log10
  viral load, Fitzmaurice mixed model, visit 3(D4): 4.2 (3.5, 4.9) log10
  viral load, Fitzmaurice mixed model, visit 3(D4) change: −2.1 (−2.7, −1.5) log10
  viral load change Effect (camostat vs placebo), Fitzmaurice mixed model, visit 4(D6): −0.09 (−1.27, 1.08) log10
  viral load, Fitzmaurice mixed model, visit 4(D6): 2.6 (1.8, 3.5) log10
  viral load, Fitzmaurice mixed model, visit 4(D6) change: −3.6 (−4.5, −2.7) log10
S gene
  viral load, Fitzmaurice mixed model, Common baseline: 5 (4.1, 5.9) log10
  viral load change Effect (camostat vs placebo), Fitzmaurice mixed model, visit 2: 0.36 (−0.72, 1.43) log10
  viral load, Fitzmaurice mixed model, visit 2: 3.6 (2.6, 4.6) log10
  viral load, Fitzmaurice mixed model, visit 2 change: −1.4 (−2.2, −0.5) log10
  viral load change Effect (camostat vs placebo), Fitzmaurice mixed model, visit 3(D4): −0.13 (−1.07, 0.8) log10
  viral load, Fitzmaurice mixed model, visit 3(D4): 2.7 (1.9, 3.5) log10
  viral load, Fitzmaurice mixed model, visit 3(D4) change: −2.3 (−3.1, −1.5) log10
  viral load change Effect (camostat vs placebo), Fitzmaurice mixed model, visit 4(D6): 0.19 (−0.98, 1.36) log10
  viral load, Fitzmaurice mixed model, visit 4(D6): 1.7 (0.8, 2.6) log10
  viral load, Fitzmaurice mixed model, visit 4(D6) change: −3.2 (−4.3, −2.2) log10
S gene, visit 1 (day 0)
  change in viral load from baseline, Mean: 0.00 log10
  change in viral load from baseline, Median: 0.00 log10
  viral load (log10) Mean: 4.50 log10
  viral load (log10) Median: 5.02 log10
S gene, visit 2 (day 2)
  change in viral load from baseline, Mean: −1.24 log10
  change in viral load from baseline, Median: −0.89 log10
  viral load (log10) Mean: 3.04 log10
  viral load (log10) Median: 3.22 log10
S gene, visit 3 (day 4)
  change in viral load from baseline, Mean: −2.06 log10
  change in viral load from baseline, Median: −1.94 log10
  viral load (log10) Mean: 2.42 log10
  viral load (log10) Median: 1.01 log10
S gene, visit 4 (day 6)
  change in viral load from baseline, Mean: −2.70 log10
  change in viral load from baseline, Median: −2.41 log10
  viral load (log10) Mean: 1.48 log10
  viral load (log10) Median: 0.00 log10
S gene, visit 5 (day 14)
  change in viral load from baseline, Mean: −4.20 log10
  change in viral load from baseline, Median: −4.28 log10
  viral load (log10) Mean: 0.27 log10
  viral load (log10) Median: 0.00 log10
S gene, visit 6 (day 28)
  change in viral load from baseline, Mean: −4.37 log10
  change in viral load from baseline, Median: −4.88 log10
  viral load (log10) Mean: 0.00 log10
  viral load (log10) Median: 0.00 log10
Visit 2 (day 2)
  viral load Camostat LSMean Change (SE): −1.10 (0.30) log10
  viral load change Difference (SE) between treatment groups: −0.01 (0.42) log10
Visit 3 (day 4)
  viral load Camostat LSMean Change (SE): −1.94 log10
  viral load change Difference (SE) between treatment groups: −0.69 log10
[1]
  viral load Camostat LSMean Change (SE): −1.94 (0.32) log10
  viral load change Difference (SE) between treatment groups: −0.69 (0.45) log10
Visit 4 (day 6)
  viral load Camostat LSMean Change (SE): −3.22 (0.46) log10
  viral load change Difference (SE) between treatment groups: −0.39 (0.63) log10
